In brackets after ≈: the same amount, converted by molar mass. Several values for one entry are separate records, joined by “and”; a condition that tells them apart may be missing. Identical values can stand only once. Like-named read-outs stand apart in the source and are kept apart here.
Experiments:
[1] = system: Gram-Positive and Gram Negative bacteria; assay type: cell-based
[2] = system: Staphylococcus aureus ATCC-29213; test: Broth microdilution MIC/MID 50 against Staphylococcus aureus; assay type: cell-based
Excerpt: The clinical and laboratory standards institute Broth Microdilution Methodology was employed, however, the growth medium used was an “RPMI” medium. Additionally, the methods for dilution and antimicrobial susceptibility tests for bacteria that grow aerobically were also followed with the noted exception of testing with alternative media (CLSI document […], CLSI, Wayne, Pa.). […] Under the column, “Isolate” identification beginning with either “GP” or “GN” occur. The “GP” corresponds to Gram-Positive bacteria and the “GN” corresponds to “Gram Negative” bacteria. Each of the organisms are specifically listed after the isolate identification.

## C[C@H]1COc2c(N3CCN(C)CC3)c(F)cc3c(=O)c(C(=O)O)cn1c23 [Levofloxacin]
[1]; GP33 EMRSA16 Staphylococcus aureus (MRSA), SSCmec type 2
  MID/MIC (amount of antibiotic): >8 µg/mL
[1]; GP34 EMRSA1 Staphylococcus aureus (MRSA), SSCmec type 3
  MID/MIC (amount of antibiotic): 0.12 µg/mL
[1]; GP35 EMRSA15 Staphylococcus aureus (MRSA), SSCmec type 4
  MID/MIC (amount of antibiotic): 0.06 µg/mL
[1]; GP36 HT2001254 Staphylococcus aureus (MRSA), PVL positive
  MID/MIC (amount of antibiotic): 0.12 µg/mL
[1]; GP37 Streptococcus agalactiae, antibiotic-susceptible clinical isolate
  MID/MIC (amount of antibiotic): 1 µg/mL
[1]; GP38 Streptococcus agalactiae, macrolide-resistant clinical isolate
  MID/MIC (amount of antibiotic): 1 µg/mL
[1]; GP39 Group C Streptococcus, antibiotic-susceptible clinical isolate
  MID/MIC (amount of antibiotic): 0.5 µg/mL
[1]; GP41 Group G Streptococcus, antibiotic-susceptible clinical isolate
  MID/MIC (amount of antibiotic): 0.25 µg/mL
[1]; GP42 Group G Streptococcus, macrolide-resistant clinical isolate
  MID/MIC (amount of antibiotic): 0.25 µg/mL
[1]; GP43 Streptococcus mitis, antibiotic-susceptible clinical isolate
  MID/MIC (amount of antibiotic): 1 µg/mL
[1]; GP46 Streptococcus constellatus, macrolide-resistant clinical isolate
  MID/MIC (amount of antibiotic): 1 µg/mL
[1]; GP47 Streptococcus oralis, antibiotic-susceptible clinical isolate
  MID/MIC (amount of antibiotic): 1 µg/mL
[1]; GP48 Streptococcus oralis, macrolide-resistant clinical isolate
  MID/MIC (amount of antibiotic): 1 µg/mL
[1]; GP49 Streptococcus bovis, antibiotic-susceptible clinical isolate
  MID/MIC (amount of antibiotic): 1 µg/mL
[1]; GP50 Streptococcus bovis, macrolide-resistant clinical isolate
  MID/MIC (amount of antibiotic): 0.5 µg/mL and 1 µg/mL
[1]; GP51 Streptococcus sanguis, antibiotic-susceptible clinical isolate
  MID/MIC (amount of antibiotic): 1 µg/mL and 0.5 µg/mL
[1]; GP52 Streptococcus sanguis, macrolide-resistant clinical isolate
  MID/MIC (amount of antibiotic): 1 µg/mL
[1]; GP53 Clostridium perfringens, antibiotic-susceptible clinical isolate, supplemented with 2% serum and 1 μg/mL Vit K
  MID/MIC (amount of antibiotic): 0.015 µg/mL
[1]; GP55 Group C Streptococcus, antibiotic-resistant clinical isolate
  MID/MIC (amount of antibiotic): 0.5 µg/mL
[1]; Listeria monocytogenes - antibiotic-susceptible clinical isolate
  MIC/MID 50: 0.50 µg/mL (≈ 1.38 µM)
[1]; Moraxella catarrhalis β-lactamase positive clinical isolate (first of two lines so named)
  MIC/MID 50: 0.06 µg/mL (≈ 0.166 µM)
[1]; Moraxella catarrhalis β-lactamase positive clinical isolate (second of two lines so named)
  MIC/MID 50: 0.06 µg/mL (≈ 0.166 µM)
[1]; Morganella morganii - multi-drug resistant clinical isolate
  MIC/MID 50: 1.00 µg/mL (≈ 2.77 µM)
[1]; P8119035 Citrobacter freundii, resistant clinical isolate
  MID/MIC (amount of antibiotic): 8 µg/mL
[1]; Proteus mirabilis - antibiotic-susceptible clinical isolate
  MIC/MID 50: 0.06 µg/mL (≈ 0.166 µM)
[1]; Proteus mirabilis - multi-drug resistant clinical isolate
  MIC/MID 50: 2.00 µg/mL (≈ 5.53 µM)
[1]; Staphylococcus aureus - multi-drug-resistant clinical isolate
  MIC/MID 50: 4.00 µg/mL (≈ 11.1 µM)
[1]; Staphylococcus aureus - teicoplanin-intermediate clinical isolate
  MIC/MID 50: 4.00 µg/mL (≈ 11.1 µM)
[1]; Staphylococcus aureus ATCC 25923 - antibiotic-susceptible control strain
  MIC/MID 50: 0.12 µg/mL (≈ 0.332 µM)
[1]; Staphylococcus aureus ATCC 43300 - methicillin-resistant control strain
  MIC/MID 50: 0.25 µg/mL (≈ 0.692 µM)
[1]; Staphylococcus epidermidis antibiotic susceptible clinical isolate
  MIC/MID 50: 0.12 µg/mL (≈ 0.332 µM)
[1]; Staphylococcus epidermidis methicillin-resistant clinical isolate
  MIC/MID 50: 0.25 µg/mL (≈ 0.692 µM)
[1]; Staphylococcus haemolyticus - antibiotic susceptible clinical isolate
  MIC/MID 50: 0.50 µg/mL (≈ 1.38 µM)
[1]; Staphylococcus saprophyticus - antibiotic susceptible clinical isolate
  MIC/MID 50: 0.50 µg/mL (≈ 1.38 µM)
[1]; Stenotrophomonas maltophila - antibiotic-resistant clinical isolate
  MIC/MID 50: 1.00 µg/mL (≈ 2.77 µM)
[1]; Stenotrophomonas maltophilia - antibiotic-susceptible clinical isolate
  MIC/MID 50: 0.25 µg/mL (≈ 0.692 µM)
[1]; Streptococcus agalactiae - antibiotic-susceptible clinical isolate
  MIC/MID 50: 1.00 µg/mL (≈ 2.77 µM)
[1]; Streptococcus agalactiae - macrolide-resistant clinical isolate
  MIC/MID 50: 1.00 µg/mL (≈ 2.77 µM)
[1]; Streptococcus bovis - antibiotic-susceptible clinical isolate
  MIC/MID 50: 1.00 µg/mL (≈ 2.77 µM)
[1]; Streptococcus bovis - macrolide-resistant clinical isolate
  MIC/MID 50: 1.00 µg/mL (≈ 2.77 µM)
[1]; Streptococcus mitis - macrolide-resistant clinical isolate
  MIC/MID 50: 1.00 µg/mL (≈ 2.77 µM)
[1]; Streptococcus oralis - antibiotic-susceptible clinical isolate
  MIC/MID 50: 1.00 µg/mL (≈ 2.77 µM)
[1]; Streptococcus oralis - macrolide-resistant clinical isolate
  MIC/MID 50: 1.00 µg/mL (≈ 2.77 µM)
[1]; Streptococcus pneumoniae - ATCC 49619 antibiotic-susceptible control strain
  MIC/MID 50: 1.00 µg/mL (≈ 2.77 µM)
[1]; Streptococcus pneumoniae - multi-drug resistant clinical isolate
  MIC/MID 50: 1.00 µg/mL (≈ 2.77 µM)
[1]; Streptococcus pneumoniae - pencillin-susceptible clinical isolate
  MIC/MID 50: 1.00 µg/mL (≈ 2.77 µM)
[1]; Streptococcus pneumoniae - penicillin-intermediate clinical isolate
  MIC/MID 50: 0.50 µg/mL (≈ 1.38 µM)
[1]; Streptococcus pneumoniae - penicillin-resistant clinical isolate
  MIC/MID 50: 0.50 µg/mL (≈ 1.38 µM)
[1]; Streptococcus pyogenes - Macrolide (MLS) resistant clinical isolate
  MIC/MID 50: 0.50 µg/mL (≈ 1.38 µM)
[1]; Streptococcus sanguis - antibiotic-susceptible clinical isolate
  MIC/MID 50: 0.50 µg/mL (≈ 1.38 µM)
[1]; Streptococcus sanguis - macrolide-resistant clinical isolate
  MIC/MID 50: 1.00 µg/mL (≈ 2.77 µM)
[2]; GP01 Staphylococcus aureus ATCC 29213, antibiotic-susceptible control strain
  MID/MIC (amount of antibiotic): 0.12 µg/mL
[2]; Staphylococcus aureus ATCC 29213 - antibiotic-susceptible control strain
  MIC/MID 50: 0.12 µg/mL (≈ 0.332 µM)
